Tests used:
[1] = system: SMN2 exon 7 minigenes with single-point mutations M1 and M2; assay: SMN2 splicing assay with minigenes mutated in the GA-rich sequence (M1, M2) in 293T cells; type: cell-based, human
DNA S6 […] = assay: FP binding assay, 18-nt DNA S6
Procedure: (§1) All synthetic DNA and RNA oligomers were purchased from Integrated DNA Technologies and reconstituted in nuclease-free water (Invitrogen #AM9932) at 1 mM. The concentration of the oligonucleotides at ˜0.1 mM was calibrated with the A260 value measured by a NanoDrop ND-1000 (Thermo, Waltham, MA, USA) and the predicted extinction coefficient (http://www.oligoevaluator.com) using Lamber-Beer's Law. The risdiplam analogues (1 mM in DMSO) were diluted in 2× assay buffer (40 mM HEPES, 200 mM NaCl for RNA; 40 mM HEPES, 200 mM NaCl, 1 mM MgCl2 for DNA) to make a 1 μM 2× working solution.
(§2) A 1:2 dilution series (8 points) of each oligonucleotide was prepared in 20-30 μL water to desired concentrations (i.e., 1-128 μM). […] For fluorescence polarization measurement, 20 μL of the above 1× working solution was transferred into a 384-well, black, F-bottom microplates (Greiner Bio-One) in duplicates or triplicates. The plate was equilibrated at room temperature for 5 min before being read using a microplate reader (SYNERGY H1, BioTek; Excitation/Emission=360/460 nm) at 25° C. […] The mixture was then transferred into a microplate (20 μL each well) in duplicates for fluorescence polarization readout. The experimental data were analyzed using Prism 8 software (Graphpad Software, San Diego, CA, USA).

5′-biotinylated RNA Seq4 = assay: Surface plasmon resonance (SPR) assay, RNA Seq4; type: binding; conditions: footnote b: SPR assay for RNA Seq4
Procedure: SPR experiments were performed on a Biacore T200 (GE Healthcare) instrument at 25° C. using streptavidin pre-coated SA sensor chips (GE Healthcare). The running buffer composed of 10 mM HEPES, 100 mM NaCl, 0.05% Tween 20 (w/v), 5 mM EDTA, 0.1% (v/v) DMSO at pH 6.8 was prepared freshly, filtered through the […] PVDF membrane prior to use. 5′-biotinylated RNA Seq4 was purchased from GenScript and dissolved in nuclease-free water to a concentration of 100 μM. For immobilization of the biotinylated RNA, the sensor chip was firstly conditioned with 3 consecutive 1 min injections of high salt solution (50 mM NaOH, 1M NaCl) at a flow rate of […]. Next, the biotinylated RNA was diluted 1000× in running buffer (100 nM) and applied over the streptavidin sensor chip surface at a flow rate of 10 μL/min to achieve immobilization level of about 800 RU. Finally, alkyne-PEG-biotin (50 μM in running buffer) was injected (1 min, […]) to block remaining streptavidin surface binding sites. The kinetics analysis was performed following the BiaControl Software Wizard Kinetics protocol. […] All monitored resonance signals were subtracted with signals from a non-binding reference channel. Kinetic values (Kd, ka, kd) were calculated using the BiaEvaluation Software Binding Affinity protocol with 1:1 fitting. […]

RNA Seq6 UGAAGGAAGGU = assay: Fluorescence polarization (FP) binding assay, RNA Seq6
Procedure: as §1
A 1:2 dilution series (8 points) of each oligonucleotide was prepared in 20-30 μL water to desired concentrations (i.e., 1-128 μM). 20-30 μL 2× working solution containing the 2× assay buffer and the small-molecule ligand was added to each oligonucleotide sample in 1:1 (v/v) and mixed by pipetting for 4 times. For fluorescence polarization measurement, 20 μL of the above 1× working solution was transferred into a 384-well, black, F-bottom microplates (Greiner Bio-One) in duplicates or triplicates. The plate was equilibrated at room temperature for 5 min before being read using a microplate reader (SYNERGY H1, BioTek; Excitation/Emission=360/460 nm) at 25° C. For compound SMN-C5, a competitive binding assay was employed to measure an apparent Kd. SMN-C5 was 1:2 serial diluted for 10 concentration points starting at 750 μM in DMSO. A mixture of SMN-C2 (0.5 μM) and DNA Seq6 (25 μM) in 1× assay buffer was prepared and incubated at room temperature for 10 minutes. 3 μL of SMN-C5 solution at each concentration was added to a 42 μL SMN-C2/DNA Seq6 mixture and incubated at room temperature for 10 minutes. The mixture was then transferred into a microplate (20 μL each well) in duplicates for fluorescence polarization readout. The experimental data were analyzed using Prism 8 software (Graphpad Software, San Diego, CA, USA).

RNA Seq7 UUAAGGAAGGU = assay: FP binding assay, RNA Seq7; conditions: Seq 7 UUAAGGAAGGU; 0.5 μM SMN-C2
Procedure: as §1, §2

[2] = target: RNA Seq18: 1:1 annealed U1 snRNA binding sequence 5′-AUACΨΨACCU and 5′ splice site 5′-GGAGGUAAGUCU; assay: FP binding assay, dsRNA Seq18 (binding site 1 sequence); conditions: Seq 18, binding site 1 sequence (dsRNA); 0.5 μM SMN-C2
Procedure: as §1, §2

DNA S4 […] = assay: FP binding assay, 18-nt DNA S4
Procedure: as §1, §2

CCN1CCN(c2ccc3cc(-c4cn5cc(C)nc(C)c5n4)c(=O)oc3c2)C[C@@H]1C [SMN-C2, (S)-3-(6,8-dimethylimidazo[1,2-a]pyrazin-2-yl)-7-(4-ethyl-3-methylpiperazin-1-yl)-2H-chromen-2-one]
exon 7 inclusion ([1]; 1 μM, 293T cells transfected with mutated minigenes M1, M2): > 90% | EC50 relative to minigene with wildtype exon 7 sequence, fold higher ([1]; mutated minigenes M1, M2 in 293T cells): 2-3 fold | Kd (DNA S6 […]): 33.3 ± 2.3 µM | Kd (5′-biotinylated RNA Seq4): 5.4 µM | Kd (RNA Seq6 UGAAGGAAGGU; Seq 6 UGAAGGAAGGU, 0.5 μM SMN-C2, range = 95% CI, read-out: RNA Kd): 17.5 ± 2.2 µM | binding affinity (Kd) to RNA Seq6 relative to RNA Seq18, fold stronger (RNA Seq6 UGAAGGAAGGU; binding site 2 vs binding site 1): 3.4 fold | Kd (RNA Seq7 UUAAGGAAGGU): 42.3 ± 13.3 µM | Kd [2]: 60 ± 36 µM | Kd (DNA S4 […]): > 50 µM

From patent US20250368651A1 (priority 2022, published 2025)
